The values below come from ChEMBL document CHEMBL5653615 (J Biol Chem, 2013).

In general, inhibition refers to the drop in the measured response relative to a control, in per cent.

Assay [1] deals with Casein kinase I isoform delta (Homo sapiens) (UniProt P48730). Description: Inhibition of human CK1d at 1.82 nM by HotSpot assay relative to control.
The target of assay [2] is T1, Dual specificity tyrosine-phosphorylation-regulated kinase 2 (Homo sapiens) (UniProt Q92630).
T1 sequence (whole entry): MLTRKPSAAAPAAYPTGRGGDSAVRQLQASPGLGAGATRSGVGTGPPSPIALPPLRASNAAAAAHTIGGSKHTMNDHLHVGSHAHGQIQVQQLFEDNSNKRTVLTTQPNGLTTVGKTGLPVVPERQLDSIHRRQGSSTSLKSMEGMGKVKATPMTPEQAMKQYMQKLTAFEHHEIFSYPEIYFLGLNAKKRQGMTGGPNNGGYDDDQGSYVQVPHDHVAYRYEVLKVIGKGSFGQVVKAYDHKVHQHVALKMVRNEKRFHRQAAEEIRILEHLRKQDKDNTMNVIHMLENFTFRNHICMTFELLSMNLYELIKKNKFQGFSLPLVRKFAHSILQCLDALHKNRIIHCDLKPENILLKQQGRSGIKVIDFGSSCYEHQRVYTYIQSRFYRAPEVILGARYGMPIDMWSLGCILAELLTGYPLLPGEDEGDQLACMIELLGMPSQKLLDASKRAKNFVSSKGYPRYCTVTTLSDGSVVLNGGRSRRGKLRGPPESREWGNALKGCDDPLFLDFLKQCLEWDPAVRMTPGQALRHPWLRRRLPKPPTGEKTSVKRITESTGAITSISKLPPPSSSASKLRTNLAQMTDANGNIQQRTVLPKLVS
The assay can be described thus: Inhibition of human DYRK2 at 1.82 nM by HotSpot assay relative to control.

Assay [3] concerns the target T2, Mitogen-activated protein kinase 13 (Homo sapiens) (UniProt O15264).
T2 sequence (whole entry): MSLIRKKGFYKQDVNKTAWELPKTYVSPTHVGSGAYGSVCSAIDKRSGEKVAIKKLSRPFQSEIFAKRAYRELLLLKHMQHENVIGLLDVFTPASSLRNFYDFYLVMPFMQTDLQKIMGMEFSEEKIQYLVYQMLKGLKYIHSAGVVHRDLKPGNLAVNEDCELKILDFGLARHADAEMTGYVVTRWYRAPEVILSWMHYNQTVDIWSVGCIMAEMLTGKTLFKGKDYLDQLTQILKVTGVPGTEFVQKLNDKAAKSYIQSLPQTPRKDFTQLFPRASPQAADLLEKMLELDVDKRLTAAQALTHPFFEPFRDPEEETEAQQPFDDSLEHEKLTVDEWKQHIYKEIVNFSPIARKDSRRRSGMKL
Description: Inhibition of human MAPK13 at 1.82 nM by HotSpot assay relative to control.

Assay [4] addresses SRSF protein kinase 2 (Homo sapiens) (UniProt P78362). Description: Inhibition of human SRPK2 at 1.82 nM by HotSpot assay relative to control.
The target in assay [5] is T3, Activin receptor type-1 (Homo sapiens) (UniProt Q04771).
T3 sequence (whole entry): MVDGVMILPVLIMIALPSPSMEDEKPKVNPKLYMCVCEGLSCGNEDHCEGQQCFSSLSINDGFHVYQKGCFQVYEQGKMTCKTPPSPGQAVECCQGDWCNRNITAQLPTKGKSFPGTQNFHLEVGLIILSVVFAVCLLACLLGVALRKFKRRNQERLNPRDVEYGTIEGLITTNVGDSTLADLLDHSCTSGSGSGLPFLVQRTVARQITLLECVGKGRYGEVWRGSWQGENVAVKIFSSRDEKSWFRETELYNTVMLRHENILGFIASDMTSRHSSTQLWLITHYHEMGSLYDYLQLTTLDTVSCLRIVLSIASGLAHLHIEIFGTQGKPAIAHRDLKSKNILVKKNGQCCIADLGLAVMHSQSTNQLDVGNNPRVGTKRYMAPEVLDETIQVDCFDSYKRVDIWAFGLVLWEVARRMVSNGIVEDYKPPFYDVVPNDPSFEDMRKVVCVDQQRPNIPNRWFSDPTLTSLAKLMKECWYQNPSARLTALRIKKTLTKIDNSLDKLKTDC
The assay can be described thus: Inhibition of human ALK2 at 18.6 nM by HotSpot assay relative to control.

In assay [6] the target is T4, Protein kinase C iota type (Homo sapiens) (UniProt P41743).
T4 sequence (whole entry): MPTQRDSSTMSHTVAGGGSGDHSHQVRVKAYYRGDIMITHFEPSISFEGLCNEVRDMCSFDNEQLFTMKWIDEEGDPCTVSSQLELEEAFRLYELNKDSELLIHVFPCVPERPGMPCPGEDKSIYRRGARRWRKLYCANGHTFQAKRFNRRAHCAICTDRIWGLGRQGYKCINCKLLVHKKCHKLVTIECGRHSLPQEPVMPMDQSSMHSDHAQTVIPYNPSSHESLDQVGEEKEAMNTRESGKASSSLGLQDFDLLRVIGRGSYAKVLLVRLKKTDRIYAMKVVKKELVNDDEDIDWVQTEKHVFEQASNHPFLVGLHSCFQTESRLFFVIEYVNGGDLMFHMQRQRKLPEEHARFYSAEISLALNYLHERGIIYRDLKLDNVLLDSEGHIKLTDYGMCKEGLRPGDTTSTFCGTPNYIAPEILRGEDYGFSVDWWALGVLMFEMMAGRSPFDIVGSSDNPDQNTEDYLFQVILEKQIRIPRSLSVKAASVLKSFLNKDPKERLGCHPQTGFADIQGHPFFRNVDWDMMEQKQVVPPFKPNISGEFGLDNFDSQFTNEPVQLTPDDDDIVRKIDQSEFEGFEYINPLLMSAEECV
The assay can be described thus: Inhibition of human PKCiota at 18.6 nM by HotSpot assay relative to control.

For assay [7], the target named is SRSF protein kinase 1 (Homo sapiens) (UniProt Q96SB4). The assay can be described thus: Inhibition of human SRPK1 at 18.6 nM by HotSpot assay relative to control.
Sequence of SRSF protein kinase 1 (Homo sapiens) (Q96SB4 whole entry): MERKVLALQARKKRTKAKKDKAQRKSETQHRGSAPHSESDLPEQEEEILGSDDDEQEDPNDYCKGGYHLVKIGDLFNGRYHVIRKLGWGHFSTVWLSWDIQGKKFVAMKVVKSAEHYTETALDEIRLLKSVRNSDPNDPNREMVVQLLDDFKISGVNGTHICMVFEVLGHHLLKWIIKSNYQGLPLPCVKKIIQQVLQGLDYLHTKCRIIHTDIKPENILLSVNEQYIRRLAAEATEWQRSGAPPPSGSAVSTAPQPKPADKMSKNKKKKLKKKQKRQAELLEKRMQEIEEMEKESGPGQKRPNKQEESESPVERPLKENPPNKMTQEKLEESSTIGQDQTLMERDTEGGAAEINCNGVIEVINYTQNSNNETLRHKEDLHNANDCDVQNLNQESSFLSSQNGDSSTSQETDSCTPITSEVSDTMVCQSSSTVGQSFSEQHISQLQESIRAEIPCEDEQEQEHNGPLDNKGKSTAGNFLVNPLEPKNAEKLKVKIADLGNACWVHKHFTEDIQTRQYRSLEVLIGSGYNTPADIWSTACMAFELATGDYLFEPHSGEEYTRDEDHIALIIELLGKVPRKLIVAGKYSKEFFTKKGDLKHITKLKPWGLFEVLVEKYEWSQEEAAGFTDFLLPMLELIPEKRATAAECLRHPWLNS

Sequence of Casein kinase I isoform delta (Homo sapiens) (P48730 whole entry, looked up, canonical isoform): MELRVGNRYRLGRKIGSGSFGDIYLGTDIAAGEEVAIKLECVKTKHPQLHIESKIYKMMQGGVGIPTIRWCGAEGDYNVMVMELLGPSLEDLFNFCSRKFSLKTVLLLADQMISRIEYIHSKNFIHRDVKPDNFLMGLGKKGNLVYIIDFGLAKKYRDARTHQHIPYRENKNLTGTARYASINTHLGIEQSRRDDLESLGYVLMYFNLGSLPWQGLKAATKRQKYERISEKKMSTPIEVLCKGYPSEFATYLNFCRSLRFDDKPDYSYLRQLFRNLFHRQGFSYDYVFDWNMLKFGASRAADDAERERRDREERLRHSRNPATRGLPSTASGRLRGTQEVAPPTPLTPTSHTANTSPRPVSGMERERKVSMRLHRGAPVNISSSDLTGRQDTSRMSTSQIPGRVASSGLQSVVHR
Sequence of SRSF protein kinase 2 (Homo sapiens) (P78362 whole entry, looked up): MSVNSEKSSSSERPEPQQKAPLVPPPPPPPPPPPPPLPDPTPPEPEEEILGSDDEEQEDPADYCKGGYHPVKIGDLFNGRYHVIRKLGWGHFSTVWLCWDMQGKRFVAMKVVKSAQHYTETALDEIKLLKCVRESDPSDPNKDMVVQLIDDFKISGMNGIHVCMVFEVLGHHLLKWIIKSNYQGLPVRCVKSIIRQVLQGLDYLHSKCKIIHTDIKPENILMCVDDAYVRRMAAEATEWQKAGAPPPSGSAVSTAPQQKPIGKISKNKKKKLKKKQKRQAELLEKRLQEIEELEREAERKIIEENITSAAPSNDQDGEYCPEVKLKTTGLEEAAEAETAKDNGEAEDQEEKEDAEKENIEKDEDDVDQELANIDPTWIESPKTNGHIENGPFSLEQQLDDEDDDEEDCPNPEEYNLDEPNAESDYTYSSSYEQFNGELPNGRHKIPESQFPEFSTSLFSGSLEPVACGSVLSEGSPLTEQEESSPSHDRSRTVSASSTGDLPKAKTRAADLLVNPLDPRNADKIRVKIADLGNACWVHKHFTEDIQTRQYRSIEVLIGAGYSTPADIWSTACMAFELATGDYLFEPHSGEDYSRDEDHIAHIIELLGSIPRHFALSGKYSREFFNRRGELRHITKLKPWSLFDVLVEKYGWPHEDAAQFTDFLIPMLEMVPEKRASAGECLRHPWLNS

`C[C@@]1(C(=O)Nc2ccc(F)nc2)CCCN1c1nc(Nc2cc(C3CC3)n[nH]2)c2cccn2n1`: the inhibition in assay [1] is 0.92%; in assay [2] it was 0%; in assay [3], -4.13%; in assay [4] it was -2.03%.

As to `C[C@]1(O)C[C@@H](c2nc(-c3ccc4ccc(-c5ccccc5)nc4c3)c3c(N)nccn32)C1`, the inhibition in assay [5] was 1.44%; in assay [6] it was -2.19%; in assay [7] it was -6.12%.
